# Experimental data published in US20130029970A1 (priority 2009, published 2013).
# Where two headings read alike, the source gives them in different places.
# Assays:
# [1] = biological target: T1, human CB2 receptors (Homo sapiens, UniProt P34972); experiment: cAMP assay in HEK-293 cells, hCB2 agonist; assay type: cell-based
# T1 construct: (cDNA clone) CNR0200000
# Outline: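 Stable hCB2 HEK-293 cells in HBSS/10 mM HEPES/0.1% fatty-acid-free BSA incubated 30 min at 37° C with compound; forskolin 90 uM in 3× compound mix.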
# [2] = biological target: T2, human CB1 receptors (Homo sapiens, UniProt P21554); experiment: cAMP assay in HEK-293 cells, hCB1 agonist; assay type: cell-based; settings: inhibition of forskolin-stimulated cAMP, HEK-293 cells
# T2 construct: (cDNA clone) CNR01L000
# T2 sequence (P21554 whole entry): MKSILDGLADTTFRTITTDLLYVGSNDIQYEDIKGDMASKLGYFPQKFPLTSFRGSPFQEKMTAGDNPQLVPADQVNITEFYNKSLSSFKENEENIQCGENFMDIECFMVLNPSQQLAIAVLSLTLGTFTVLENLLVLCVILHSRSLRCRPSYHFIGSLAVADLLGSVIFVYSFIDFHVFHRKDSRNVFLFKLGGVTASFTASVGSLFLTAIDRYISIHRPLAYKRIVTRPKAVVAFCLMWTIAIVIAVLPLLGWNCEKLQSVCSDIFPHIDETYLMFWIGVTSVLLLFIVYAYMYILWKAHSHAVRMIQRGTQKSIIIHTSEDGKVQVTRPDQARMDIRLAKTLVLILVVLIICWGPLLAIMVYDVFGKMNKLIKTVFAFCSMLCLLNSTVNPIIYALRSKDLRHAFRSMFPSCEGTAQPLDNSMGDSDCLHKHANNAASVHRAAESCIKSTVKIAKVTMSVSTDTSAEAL
# Outline: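 Agonist EC50 taken as concentration giving half inhibition of forskolin-driven cAMP, normalized to forskolin maximum, from sigmoidal curves. Whole HEK-293 cells stably expressing hCB1, in HEPES/BSA-containing HBSS, exposed 30 min at 37° C. to compound with forskolin (90 uM in 3× dilution); cAMP read after lysis.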
# [3] = biological target: T3, human CB1 (hCB1) (Homo sapiens, UniProt P21554); experiment: 35S GTPγS binding assay, hCB1 agonist; assay type: biochemical; settings: GTPγS agonist, HEK-293 membranes; read-out: hCB1 EC50 (GTPyS ag)
# T3 construct: (cDNA clone) CNR01L000
# T3 sequence (P21554 whole entry): as above
# Text: (§1) cDNA expression clones for human CB1 (hCB1, Genbank Accession No. AY225225) and human CB2 (hCB2, Genbank Accession No. AY242132) expressed in vector pcDNA3.1+ were purchased from UMR cDNA Resource Center, Rolla, Mo. (Clone ID CNR01L000 for hCB1; CNR0200000 for hCB2).
# Stable, HEK-293-derived cell lines that recombinantly express hCBI or hCB2 were established. In brief, the clone hCB1 (CNR IL) or hCB2 (CNR2) was transfected into human embryonic kidney cells (HEK-293) using Lipofectamine 2000 (Gibco, Cat#11668-019) according to the manufacturer's protocol. Transfected clones were isolated by single colony purification and clones were screened for receptor expression using a whole cell, ^3H—CP 55,940 radioligand binding assay. HEK-293 stable cells were maintained in Dulbecco's modified Eagles medium (DMEM) containing 10% fetal bovine serum, 2 mM L-glutamine and 0.5 mg/mL G-418.
# (§2) Membranes were isolated from transfected cells as follows. Monolayers of cultured cells were washed twice with phosphate-buffered saline (PBS). Cells were scraped into 20 mM HEPES, pH 7.4, 10 mM EDTA containing complete cocktail protease inhibitors (Roche, Catalog #11 697 498 001) and were homogenized by an electric-powered mechanical probe homogenizer (Omni GLH; probe G7-195S) for 40 seconds at 7000 rpm. Homogenates were centrifuged 10 minutes at 1000×g at 4° C. The supernatant was collected and was centrifuged for 1 hour at 40,000×g. The supernatant was then decanted and the resulting pellet was re-suspended in 20 mM HEPES, pH 7.4, 5 mM MgCl2, 1 mM EDTA, 10% sucrose with complete cocktail protease inhibitors. Protein concentration of membrane suspensions were measured by Bradford Protein Assay using bovine serum albumin as the standard (BioRad catalog #500-0006). Protein concentrations of membrane suspensions were adjusted with the final buffer in the range of 5 to 10 mg/mL and were stored at −80° C. until further use.
# (§3) Functional assays which monitor G-protein coupled receptor or downstream cellular responses can be used to characterize potential CB1 receptor and/or CB2 receptor agonist or antagonist activities. Direct activation (or inhibition of activation) can be monitored using a GTPγS assay (membrane-based assay) or cAMP assay (whole cell-based assay).
# (§4) ^35S GTPγS binding assays were performed by incubating recombinant cell membranes prepared above (5 μg) in the presence of scintillation proximity assay beads (SPA beads, Catalog #RPNQ0252 GE Healthcare, Buckinghamshire, England) in GTPγS binding buffer [50 mM HEPES (pH 7.4), 100 mM NaCl, 5 mM MgCl2, 0.001% saponin (Sigma catalog #S4521)] supplemented with 20 uM GDP (Sigma catalog #G7127) in the presence or absence of test compound. The reaction was carried out in 96-well microplates with 0.1 nM [^35S]GTPγS (specific activity=1250 Ci/mmol; Perkin Elmer catalog #NEG030X250UC) in a final volume of 100 uL. After a 90 min room temperature incubation, the reaction was analyzed using a scintillation counter (Perkin Elmer Microbeta instrument). Binding data were analyzed using GraphPad Prism.
# [4] = biological target: T4, human CB2 (hCB2) (Homo sapiens, UniProt P34972); experiment: 35S GTPγS binding assay, hCB2 agonist; assay type: biochemical
# T4 construct: (cDNA clone) CNR0200000
# T4 sequence (P34972 whole entry): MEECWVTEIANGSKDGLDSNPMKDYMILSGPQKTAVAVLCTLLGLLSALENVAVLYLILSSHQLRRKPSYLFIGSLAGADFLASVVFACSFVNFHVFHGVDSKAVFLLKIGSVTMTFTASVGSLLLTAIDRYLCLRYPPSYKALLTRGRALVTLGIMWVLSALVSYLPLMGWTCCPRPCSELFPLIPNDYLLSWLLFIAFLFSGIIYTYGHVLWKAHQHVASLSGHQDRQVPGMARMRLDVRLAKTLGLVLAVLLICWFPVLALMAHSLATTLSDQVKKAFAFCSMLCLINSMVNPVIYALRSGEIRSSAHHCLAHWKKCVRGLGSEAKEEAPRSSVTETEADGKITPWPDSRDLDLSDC
# Protocol: as §1
# as §2, with “Cells were scraped into 20 mM HEPES, pH 7.4, 10 mM EDTA containing complete cocktail protease inhibitors (Roche, Catalog #11 697 498 001) and were homogenized by an electric-powered mechanical probe homogenizer (Omni GLH; probe G7-195S) for 40 seconds at 7000 rpm.” left out
# as §3, §4
# [5] = inhibition of forskolin-stimulated cAMP, HEK-293 cells, read-out: hCB2 EC50 (cAMP ag)
# [6] = GTPγS agonist, HEK-293 membranes, read-out: hCB2 EC50 (GTPyS ag)
# [7] = inhibition of forskolin-stimulated cAMP, HEK-293 cells
# T1 sequence (P34972 whole entry): as above
compound,measurement,setting,value
"COc1ccc(C(=O)c2cc3cc(C)n(CC4CCOC4)c3s2)cn1 (centres unmarked) [Compound 159, (6-methoxypyridin-3-yl)(5-methyl-6-((tetrahydrofuran-3-yl)methyl)-6H-thieno[2,3-b]pyrrol-2-yl)methanone]",EC50,[1],1 to 10 µM
same,"hCB1 EC50 (cAMP ag, nM)",[2],"NS (NS means “Not Significant,” which means less than 30% agonist activity when compared to the positive control.)"
same,EC50,[3],> 10 µM
same,EC50,[4],> 10 µM
"COc1ccc(C(=O)c2cc3cc(C)n(CCN4CCOC(C)(C)C4)c3s2)cn1 [Compound 162, (6-(2-(2,2-dimethylmorpholino)ethyl)-5-methyl-6H-thieno[2,3-b]pyrrol-2-yl)(6-methoxypyridin-3-yl)methanone]",EC50,[1]; [5],0.1 to 1 µM
same,"hCB1 EC50 (cAMP ag, nM)",[2],"NS (NS means “Not Significant,” which means less than 30% agonist activity when compared to the positive control.)"
same,EC50,[3],> 10 µM
same,EC50,[4]; [6],> 10 µM
"COc1ccc(C(=O)c2cc3cc(C)n(CCNC4CCOCC4)c3s2)cn1 [Compound 163, (6-methoxypyridin-3-yl)(5-methyl-6-(2-((tetrahydro-2H-pyran-4-yl)amino)ethyl)-6H-thieno[2,3-b]pyrrol-2-yl)methanone]",EC50,[1],0.1 to 1 µM
same,"hCB1 EC50 (cAMP ag, nM)",[2],"NS (NS means “Not Significant,” which means less than 30% agonist activity when compared to the positive control.)"
same,EC50,[3],> 10 µM
same,EC50,[4],1 to 10 µM
"COc1ccc(C(=O)c2cc3cc(C)n(CC(=O)O)c3s2)cn1 [Compound 166, 2-(2-(6-methoxynicotinoyl)-5-methyl-6H-thieno[2,3-b]pyrrol-6-yl)acetic acid]","hCB2 EC50 (cAMP ag, nM)",[1]; [7],"NS (NS means “Not Significant,” which means less than 30% agonist activity when compared to the positive control.)"
same,"hCB1 EC50 (cAMP ag, nM)",[2],"NS (NS means “Not Significant,” which means less than 30% agonist activity when compared to the positive control.)"
same,EC50,[3],> 10 µM
same,EC50,[4]; [6],> 10 µM
"COC(=O)Cn1c(C)cc2cc(C(=O)c3ccc(OC)nc3)sc21 [Compound 168, Methyl 2-(2-(6-methoxynicotinoyl)-5-methyl-6H-thieno[2,3-b]pyrrol-6-yl)acetate]","hCB1 EC50 (cAMP ag, nM)",[2],"NS (NS means “Not Significant,” which means less than 30% agonist activity when compared to the positive control.)"
same,EC50,[3],> 10 µM
same,EC50,[4]; [6],> 10 µM
"COc1ccc(C(=O)c2cc3cc(C)n(C[C@@H]4COCCN4C)c3s2)cn1 [Compound 171, (R)-(6-methoxypyridin-3-yl)(5-methyl-6-((4-methylmorpholin-3-yl)methyl)-6H-thieno[2,3-b]pyrrol-2-yl)methanone]","hCB1 EC50 (cAMP ag, nM)",[2],"NS (NS means “Not Significant,” which means less than 30% agonist activity when compared to the positive control.)"
same,EC50,[3],> 10 µM
same,EC50,[4],> 10 µM
"COc1ccc(C(=O)c2cc3cc(C)n(CC4CCNCC4)c3s2)cn1 [Compound 172, (6-methoxypyridin-3-yl)(5-methyl-6-(piperidin-4-ylmethyl)-6H-thieno[2,3-b]pyrrol-2-yl)methanone]","hCB2 EC50 (cAMP ag, nM)",[1]; [7],"NS (NS means “Not Significant,” which means less than 30% agonist activity when compared to the positive control.)"
same,"hCB1 EC50 (cAMP ag, nM)",[2],"NS (NS means “Not Significant,” which means less than 30% agonist activity when compared to the positive control.)"
same,EC50,[3],> 10 µM
same,EC50,[4]; [6],> 10 µM
"COc1ccc(C(=O)c2cc3cc(C)n(C)c3s2)cn1 [Compound 174, (5,6-dimethyl-6H-thieno[2,3-b]pyrrol-2-yl)(6-methoxypyridin-3-yl)methanone]","hCB1 EC50 (cAMP ag, nM)",[2],"NS (NS means “Not Significant,” which means less than 30% agonist activity when compared to the positive control.)"
same,EC50,[3],> 10 µM
same,EC50,[4]; [6],> 10 µM
"COc1ccc(C(=O)c2cc3cc(C)n(CC(=O)O)c3s2)c(F)c1 [Compound 176, 2-(2-(2-fluoro-4-methoxybenzoyl)-5-methyl-6H-thieno[2,3-b]pyrrol-6-yl)acetic acid]",EC50,[1]; [5],< 0.1 µM
same,"hCB1 EC50 (cAMP ag, nM)",[2],"NS (NS means “Not Significant,” which means less than 30% agonist activity when compared to the positive control.)"
same,EC50,[3],> 10 µM
same,EC50,[4]; [6],> 10 µM
"COc1ccc(C(=O)c2cc3cc(C)n(CC4COCCO4)c3s2)cn1 (centres unmarked) [Compound 177, (6((1,4-dioxan-2-yl)methyl)-5-methyl-6H-thieno[2,3-b]pyrrol-2-yl)(6-methoxypyridin-3-yl)methanone]",EC50,[1],1 to 10 µM
same,"hCB1 EC50 (cAMP ag, nM)",[2],"NS (NS means “Not Significant,” which means less than 30% agonist activity when compared to the positive control.)"
same,EC50,[3],> 10 µM
same,EC50,[4],1 to 10 µM
"COc1ccc(C(=O)c2cc3cc(C)n(CCN4CCCC4COCc4ccccc4)c3s2)cn1 (centres unmarked) [Compound 178, (6-(2-(2-((benzyloxy)methyl)pyrrolidin-1-yl)ethyl)-5-methyl-6H-thieno[2,3-b]pyrrol-2-yl)(6-methoxypyridin-3-yl)methanone]","hCB2 EC50 (cAMP ag, nM)",[1]; [7],"NS (NS means “Not Significant,” which means less than 30% agonist activity when compared to the positive control.)"
same,"hCB1 EC50 (cAMP ag, nM)",[2],"NS (NS means “Not Significant,” which means less than 30% agonist activity when compared to the positive control.)"
same,EC50,[3],> 10 µM
same,EC50,[4],> 10 µM
"COc1ccc(C(=O)c2cc3cc(C)n(CC4CCN(C(=O)OC(C)(C)C)CC4)c3s2)cn1 [Compound 179, tert-butyl 4((2-(6-methoxynicotinoyl)-5-methyl-6H-thieno[2,3-b]pyrrol-6-yl)methyl)piperidine-1-carboxylate]","hCB1 EC50 (cAMP ag, nM)",[2],"NS (NS means “Not Significant,” which means less than 30% agonist activity when compared to the positive control.)"
same,EC50,[3],> 10 µM
same,EC50,[4]; [6],> 10 µM
"COc1ccc(C(=O)c2cc3cc(C)n(CCN4CCC(C(F)(F)F)CC4)c3s2)cn1 [Compound 181, (6-methoxypyridin-3-yl)(5-methyl-6-(2-(4-(trifluoromethyl)piperidin-1-yl)ethyl)-6H-thieno[2,3-b]pyrrol-2-yl)methanone]","hCB2 EC50 (cAMP ag, nM)",[1]; [7],"NS (NS means “Not Significant,” which means less than 30% agonist activity when compared to the positive control.)"
same,EC50,[3],1 to 10 µM
same,EC50,[4],0.1 to 1 µM
